Assays:
solubility in water = type: physicochemical
[1] = in vivo; choline salt compared with the free acid

| SMILES | solubility in water (solubility in water) | bioavailability [1] | oral exposure [1] |
| --- | --- | --- | --- |
| CC1=NN(c2ccc(C)c(C)c2)C(=O)C1=NNc1cccc(-c2cccc(-c3nnn[nH]3)c2)c1O [free acid, 2-(3,4-dimethylphenyl)-4-{[2-hydroxy-3′-(1H-tetrazol-5-yl)biphenyl-3-yl]-hydrazono}-5-methyl-2,4-dihydropyrazol-3-one] | poorly soluble | – | – |
| CC1=NN(c2ccc(C)c(C)c2)C(=O)/C1=N\Nc1cccc(-c2cccc(-c3nnn[nH]3)c2)c1O [Compound A, 2-(3,4-dimethylphenyl)-4-{[2-hydroxy-3′-(1H-tetrazol-5-yl)biphenyl-3-yl]-hydrazono}-5-methyl-2,4-dihydropyrazol-3-one choline] | – | enhanced | enhanced |

Reference: patent publication US7666857B2, “2-(3,4-dimethylphenyl)-4-{[2-hydroxy-3′-(1h-tetrazol-5-yl)biphenyl-3-yl]-hydrazono}-5-methyl-2,4-dihydropyrazol-3-one choline” (SmithKline Beecham Corp., priority 2004, dated 2010)
